Data on 88 molecules can be found in a melting point compilation (Tetko et al.; mined from patent text by program, amines drawn as free bases though some values may be those of a salt).

As to `COc1cccc2c(=O)cc(-c3ccccc3SCc3ccccc3)[nH]c12`, the melting point (as a rule, the temperature, or range, at which the solid turns liquid) was in the range of 139 to 140 °C.

Regarding `Nc1nc(-c2ccncc2)nc(N)c1N`, the melting point was 230 to 232 °C. Take `OCCCn1c(C2CCCCC2)nc2cc(Cl)ccc21`: the melting point came to 95 °C.

For the molecule `CCc1nc2c(N)nc(C)c(C)c2n1CCOCCN`, the melting point is 152 to 154 °C.

`CC(C)S(=O)(=O)c1cc(O)c(N)c(C#N)c1` registered a melting point of 166 to 167 °C. In the case of `COc1cc(C(C)(C)CCCC(=O)OC2CC(C)(C)NC(C)(C)C2)c(O)cc1C(C)(C)CCCC(=O)OC1CC(C)(C)NC(C)(C)C1` it was 165 to 168 °C; in that of `COC(=O)[C@@H]1C(=O)N(C)c2ccccc2C[C@H]1c1ccc2c(c1)OCO2` (racemic), 125 to 127 °C; in that of `CSc1ccc(-c2cnc3ccc(-c4nnc(C)o4)cn23)cc1`, 180 to 181 °C. In turn, `O=C(CCc1ccccc1)Nc1ccc2c(c1)C(=O)c1cc(NC(=O)CCc3ccccc3)ccc1C2=O` gave a melting point of 268 °C. In the case of `N#CCCNC(=O)c1cccc(-c2ccc3c(c2)N(c2ccc(Cl)cc2Cl)CCCC3)c1` it was 139 to 142 °C; in that of `CC(=O)/C(=C/I)c1ccccc1`, 97 °C. Next, `O=c1c(-c2ccccc2F)c(CNc2ncnc3[nH]cnc23)oc2ccccc12`: 143 to 147 °C.

The molecule `CCCCCCCCCCCCc1c(C(=O)OCC)[nH]c(C)c1C` came in with a melting point of 70 to 71 °C. Next, `CC(C)(C)OC(=O)N1CCN(c2ccc(OCc3ccccc3)cn2)CC1`: 93 to 94 °C. Next, `CCOC(=O)C1=C(C(F)(F)F)Nc2n[nH]cc2C1c1ccsc1` (stereo not drawn): 140 to 145 °C. Next, `Cc1c(-c2ccccc2)oc2c(C(=O)OCCN3CCOCC3)cc(Cl)cc2c1=O`: 68 to 73 °C; `CC1(C)CC(=O)c2c(Nc3ccccc3)cn(-c3ccccn3)c2C1`: 135 to 138 °C. In the case of `CC1CC(=O)NN=C1c1ccc(Nc2nc(=O)cc[nH]2)cc1` (stereo not drawn), the melting point was in the range of 268 to 270 °C.

In the case of `Cc1ccccc1-c1nc2n(c1Br)-c1cccnc1Nc1ccccc1-2`, the melting point was in the range of 220 to 222 °C. In the case of `O=C(O)CCOc1cccc2c1CCc1sc(SC(c3ccccc3)c3ccccc3)nc1-2` it was 156 to 158 °C.

Molecule `CCCC(=O)N1CCc2cc(S(=O)(=O)N3CCN(c4cccc(Cl)c4)CC3)ccc21` came in with a melting point of 267 to 268 °C. With `O=[N+]([O-])c1n[nH]c(-c2ccc(C(F)F)c(C(SC(c3cc(-c4nc([N+](=O)[O-])n[nH]4)ccc3C(F)F)C(F)(F)F)C(F)(F)F)c2)n1` (stereo not drawn), the melting point fell in the range of 74 to 76 °C. Next, `CSc1c(O[C@H]2CC[C@H](NCc3ccccc3)CC2)ccc2[nH]ncc12`: 136 °C. Next, `O=C(O)CCc1ccnc(-c2nc(=O)c3ccc(Br)cc3s2)c1`: 258 to 259 °C. `Cc1ccc(O)c(C(=O)C2CC2)c1` yielded a melting point of 66 to 68 °C. Next, `Cc1oc(-c2ccccc2)nc1C(=O)COc1ccc(CCC2OCCO2)cc1`: 119 to 120 °C. Next, `CCCNC(=O)CCCCOc1ccc2c(c1)CCCN2C1CC(C)N(C(=O)c2cc(OC)c(OC)c(OC)c2)c2ccccc21` (stereo not drawn): 124 to 133 °C; `O=C(NCc1cccc2ccccc12)C1CCc2[nH]cnc2C1` (stereo not drawn): 142 to 144 °C; `CN1CCN(c2ccc(C(=O)N[C@H]3CC[C@H](CCN4CCN(c5nccc6c5CCO6)CC4)CC3)cc2)CC1`: 236 °C. For the molecule `CC1=CC(=O)CC(C)(C)C1(O)C/C=C(C)/C=C\O` (stereo not drawn), the melting point lay within 127 to 129 °C. In the case of `CC(=O)NNc1nc(C(F)(F)F)nc(-c2ccc(S(C)(=O)=O)cc2)c1-c1ccc(Cl)cc1` it was 254 to 256 °C; in that of `O=C1Nc2cc(-c3ccco3)ccc2C2CCCC12F` (stereo not drawn), 203 to 206 °C; in that of `O=c1cccc(-c2nc(=O)c3ccccc3s2)[nH]1`, 214 to 215 °C. In the case of `O=C(C=Cc1ccc(O)cc1)N(CCO)CCO` it was 148 to 150 °C; in that of `CN1C(C)(C)CC(Nc2c([O-])[c+](NC3CC(C)(C)N(C)C(C)(C)C3)[c+]2[O-])CC1(C)C`, greater than 340 °C; in that of `O=C1CCc2ccc(O)c(c2)Oc2ccc(cc2)C2OC2CO1` (stereo not drawn), 180 to 181 °C. Consider `CC(=O)OCCn1cc(C2=C(c3cn(C)c4ccccc34)C(=O)OC2=O)c2ccccc21`, for which the melting point was in the range of 198 to 199 °C.

Consider `Oc1c(Br)cc(-c2c3ccccc3c(Cl)c3sc4ccccc4c23)cc1Br`, for which the melting point is 222 to 223 °C.

On to `COc1cc(Cc2cnc(N)nc2N)cc2c1OC(C)(C)C=C2c1ccccc1`, for which the melting point is greater than 260 °C.

For the molecule `c1ccc(-c2nn3c(c2-c2nc4ccccc4[nH]2)CCC3)nc1`, the melting point was in the range of 172 to 175 °C. On to `CN(C)C(=O)c1c(F)cccc1I`, for which the melting point was in the range of 86 to 89 °C. Next, `COCOCC1(C)Cc2c(C)c(N3CCN(c4ccc(OC)cc4)CC3)c(C)c(C)c2O1` (stereo not drawn): 111 to 114 °C; `CCCCc1nc(Cl)c(C=O)n1Cc1ccc(-c2ccccc2C#N)cc1`: 96 to 97 °C; `CCCc1cc(N2CCC(NCC(O)c3ccc4ccccc4n3)CC2)nc2sc(C(N)=O)c(N)c12` (stereo not drawn): 159 to 161 °C.

`Cc1nc(C)c(Cc2cccs2)c(NCc2ccc(-c3ccccc3-c3nnn[nH]3)cc2)n1` came in with a melting point of 262 to 263 °C. In the case of `[N-]=[N+]=C1CCCCCCCCCCC1=O` it was 43 to 44 °C.

Molecule `O=C(O)CCCn1c(=O)[nH]c2ccccc21` displayed a melting point of 180 °C.

In turn, `CCOC(=O)c1cnoc1-c1cccc(OC)c1` yielded a melting point of 85 to 87 °C. Next, `O=C1C=CC(=C(c2ccccc2)c2ccccc2)O1`: 110 to 112 °C; `Cc1nc(-n2ccc(C3CC3)cc2=O)sc1C(=O)NCc1ccccc1`: 149 to 151 °C; `Cc1cc(CCc2c(Br)c(C)c(O)c(C)c2Br)c(Br)c(C)c1O`: 249 to 255 °C. Molecule `Nc1cccc2c1-c1nc3ccccc3cc1CC2` displayed a melting point of 138 to 140 °C.

Consider `O=C/C=C/C1=C(c2ccc(F)cc2)C=C(c2ccc(F)cc2)CC12CCCC2`, for which the melting point is 120 to 124 °C. Next, `O=C(NC12CC3CC(CC(C3)C1)C2)OCc1cccs1`: 66 to 68 °C; `CCOC(=O)c1[nH]c2ccccc2c1Br`: 150 to 152 °C. `O=C(O)CCCCCCc1ccccc1CO` registered a melting point of 75 to 77 °C. In the case of `Brc1ccc(C2CCCc3cncn32)cc1` (stereo not drawn) it was 216 °C; in that of `COc1ccc(C(=O)c2ccc(OCC(=O)O)c(Cl)c2Cl)cc1`, 158 to 159 °C.

On to `CCNc1cc(C(C)=NO)ccn1`, for which the melting point fell in the range of 155 to 156 °C. Next, `CCN1CC(C)=CC2=C1N1CN(OC)C=C1N=N2`: 202 to 203 °C; `O=C(O)c1ccc(-c2nnc(-c3ccc(C(F)(F)F)cc3)o2)cc1`: greater than 300 °C. In the case of `CC(C)N(C(N)=O)c1ccc2c(c1)OCO2` it was 116 to 119 °C.

Molecule `COc1ccc(CC2CCN(C(=O)C(=O)Nc3ccc4[nH]c(=O)oc4c3)CC2)cc1` showed a melting point of 193 to 197 °C. `CS(=O)(=O)c1ccc(-c2cnn(C3CCCCC3)c(=O)c2-c2ccc(F)cc2)cc1` showed a melting point of 169 to 171 °C. In the case of `COc1ccc2cc(CCC(C)O)ccc2c1` (stereo not drawn) it was 94 to 95 °C; in that of `CN(Cc1ccccc1)c1nc(N)nc(-c2cc(Cl)ccc2Cl)n1`, 163 to 164 °C. Next, `O=C(O)c1ccc(OCCC2CC(=O)N(c3ccc(Cl)cc3)C2)cc1` (stereo not drawn): 228 to 229 °C; `C1=CCC(C2CCCCCCC2)N=NC(C2CCCCCCC2)CC=CCC1` (stereo not drawn): 62 to 63 °C. In the case of `CC1(C)NC(=O)CN1C(=O)CCl` it was 151 to 153 °C; in that of `CC1(C)CC(=O)C2=C(C1)NC1=C(C(=O)CC(C)(C)C1)C2c1ccc([N+](=O)[O-])c(OCc2ccccc2)c1`, 239 to 240 °C. Molecule `CCCCCCCCCCc1ccc2cc(SC)c(OC)cc2c1` had a melting point of 49.5 to 50.4 °C. For `CNC(=O)c1cc2c(Oc3ccc(C4=NCCN4)cc3)cncc2s1`, the melting point is greater than 280 °C. Next, `COc1cc(C)cc(OC)c1C1=NC(NC(=O)Nc2ccccc2Cl)C(=O)N(C)c2ccccc21` (stereo not drawn): 260 °C; `CC(C)(COc1ccc(O)c(C(N)=O)c1)[N+](=O)[O-]`: 145 to 148 °C. Next, `COc1ccc(C(=NOCc2ccc(OCc3nc(-c4ccccc4)oc3C)cc2)C(=O)O)cc1`: 183 to 184 °C.

Regarding `CN(c1ncccc1C=O)C1CCN(C(=O)OC(C)(C)C)CC1`, the melting point is 90 to 91 °C. Next, `COCOc1ccc(-n2nc(C(F)(F)F)cc2-c2ccc(S(C)(=O)=O)cc2)cc1`: 96 to 97 °C; `CC(C)c1cc2sccc2c2c3c([nH]c12)CCNC3`: 197 to 199 °C; `CC(=O)SCCC(=O)N1CC[C@H](SC(C)=O)[C@H]1C(=O)O`: 145 to 148 °C. `N#Cc1ccc(N2C(=O)C3C(F)CCN3C2=O)c2ccccc12` (stereo not drawn) displayed a melting point of 228 to 230 °C. In the case of `CC1CCCN1CCCN1C(=C(C#N)C#N)N(CCN2CCCCC2)c2ccccc21` (stereo not drawn) it was 85 to 86 °C. Next, `N#CC(C(=O)CBr)c1cccc(Cl)c1` (stereo not drawn): 124 to 132 °C; `N=C(N)c1ccc2cc(OC(=O)C3CCC(CNC(=O)OCc4ccccc4)CC3)ccc2c1` (stereo not drawn): 167 to 170 °C; `Cc1cc(-c2cnn3c(C(F)(F)F)cc(-c4ccc(OCC(F)(F)F)c(C(F)(F)F)c4)nc23)ccn1`: 210 °C. Next, `CCOC(=O)c1cnn2c1c(NC(C)CC)nc1ccccc12` (stereo not drawn): 82 to 84 °C; `Cc1nc(N2N=C(c3ccc([N+](=O)[O-])cc3)c3cc4c(cc3CC2C)OCO4)no1` (stereo not drawn): 191 to 200 °C. In the case of `O=c1nc(-c2cccc(Cl)c2)c2cc(C3(c4ccc(Cl)cc4)OCCO3)ccc2[nH]1`, the melting point was found to be 220 °C. Next, `N#CC1(Nc2ccccc2)CCN(C2CCC(c3ccc(F)cc3)(c3ccc(F)cc3)CC2)CC1`: 139 to 140 °C.
